Patent publication US20210153484A1, “Humanized Mouse Model” (The Wistar lnstitute, priority 2018, published 2021)
Entries after “also recorded” stand apart in the source; their conditions may differ.

Columns and labels:
human γ/δ+ T-cells = test: Human T γ/δ cells in reconstituted Hu-mice treated with HMBPP (IHC); format: in vivo, mouse; conditions: HMBPP 50 mg/kg i.p.
Excerpt: FIGS. 6A-6C illustrate the human immune subpopulation in spleen, thymus, lymph node, small intestines (SI) and lungs of humanized mice. […] Mouse SI and lungs show presence of IgA+ and IgE+ cells (left and right panels) as determined by mouse anti-human IgA or […] antibodies. Minimal staining of mouse cells was observed when the tissue sections were stained with anti-mouse specific antibodies (See FIG. 23). […] Mouse spleen (left panels; a), thymus (middle panels) and mesenteric lymph nodes (right panels) show presence of CD4+ (top panels) and CD8+ (bottom panels) T-cells as determined by IHC staining using anti-human CD4 or CD8 antibodies. […] Presence of T γ/δ cells were determined in a IHC staining by using mouse anti-human TcR γ/δ antibody.
Besides the presence of human CD45+ cells, the presence of monocytes/myeloid lineage cells HLA DR+, CD33+, CD15+, CD11b+ and CD14+ was observed (FIG. 5D). […] B-cells are fully functional, as antigen specific IgG were detected in circulating blood (see anti-hTERT response below), and IgA and IgE with unknown specificity in the mucosal layers of small intestines and the lungs (FIG. 6B, FIG. 23). Human CD4+ and CD8+ subpopulations of T-cells were detected in spleen, thymus and mesenteric lymph node tissues (FIG. 6C). […]

451LU melanoma = test: Anti-PD1 therapy in Hu-mice melanoma model, aggressively growing 451LU tumors; format: in vivo, mouse
Procedure: All animal experiments were performed according to protocols approved by the Wistar Institute's Institutional Animal Care and User Committee (IACUC). NOD/LtSscidIL2Rγ^null (NSG) mice were inbred at The Wistar Institute under license from the Jackson Laboratory. For humanization, fetal liver and thymus were obtained from the same donor (18-22 weeks of gestation). NSG mice (6 to 8 weeks) received thymus graft (1 mm^3) in sub-renal capsule 24 h post myeloablation using Busulfan (30 mg/kg, i.p.; Sigma-Aldrich [B2635], St. Louis, Mo.). This is immediately followed by injection of autologous liver-derived CD34^+ hematopoietic stem cells (10^5 cells/mouse, i.v., FIG. 5A) that was magnetically sorted by microbeads conjugated with anti-human CD34 (Miltenyi Biotec., [130-046-703], Auburn, Calif.; Chen et al. Bio Protoc. (2013) 3(23)). Six to 8 weeks (>50 days) later, presence of human immune cells was monitored by multi-color flow cytometry using 18 color BD LSR II Analyzer (BD Biosciences; Somasundaram et al. Nat. Commun. 2017, 8(1):607). To accelerate human immune cell reconstitution mice received AAV8 encoding human IL-3, IL-7 and GM-CSF (FIG. 5; FIG. 20A; 10^8; iv; Wu, . . . Ertl., et al 2013). […] Tumors were measured twice a week using digital calipers.

[1] = test system: WM3629 [HLA-A3] melanoma cells; test: Anti-PD1 therapy in Hu-mice melanoma model, WM3629 tumors; format: in vivo, mouse; conditions: anti-PD1 10 mg/kg i.p. weekly
Procedure: (§1) FIGS. 8A-8H illustrate functional characterization of human immune cells in humanized mice. FIGS. 8A-8C show T- and B-cell response to hTERT vaccine. FIG. 8A is a schema for hTERT DNA vaccination. Hu-mice received a total of 3 injections of hTERT vaccine (hTERT DNA [50 μg; i.m] followed by electroporation) every 2 weeks and the mice were sacrificed 1 week after the last injection to determine T- and B-cell responses. […] Spleen cells from Hu-mice (n=3) were stimulated overnight (18 h) with pools of overlapping hTERT peptides (15 mer; 2 μg/ml/peptide) spanning the entire hTERT protein. Human IFNγ was detected in ELISPOT assay using a kit. […] Endpoint binding titer was determined in sera of hTERT vaccinated mice after 3 immunizations and compared to sera from NSG mice as controls. […] Tumor growth measurements are recorded using digital caliper by an independent researcher. […]
(§2) All animal experiments were performed according to protocols approved by the Wistar Institute's Institutional Animal Care and User Committee (IACUC). […] Six to 8 weeks (>50 days) later, presence of human immune cells was monitored by multi-color flow cytometry using 18 color BD LSR II Analyzer (BD Biosciences; Somasundaram et al. Nat. Commun. 2017, 8(1):607). […] Tumors were measured twice a week using digital calipers.

mast cells in tumor = test: Mast cell immunostaining of melanoma patients' tumors after anti-PD1 therapy; format: in vivo, human; conditions: compared to untreated individuals
Procedure: (§3) IHC staining was performed as previously described (Somasundaram et al 2017). Briefly, tissue sections were subjected to antigen retrieval by incubation with Target Retrieval Solution (Citrate [S1699] or Tris-EDTA buffers [S2367]; Agilent-DAKO, Santa Clara, Calif.) kit at 95° C. for 20 min and subsequently incubated with primary antibodies with optimum dilutions (FOXP3 [1:10]; CD4, HLA class I, HMB45 and mast cell tryptase [all at 1:100 dilution]; CD68, IgA and IgE [all at 1:400 dilution] and CD8 [1:500 dilution]. For detection of primary antibodies slides were incubated with anti-mouse, anti-rat or anti-rabbit antibodies at 1:1000 dilution and visualized by DAB (SK-4100) or AEC (SK-4200; both Vector Laboratories, Burlingame, Calif.) chromogens.

[2] = test system: A375 [HLA-A2] melanoma cells; test: Anti-PD1 therapy in Hu-mice melanoma model, A375 tumors; format: in vivo, mouse; conditions: anti-PD1 10 mg/kg i.p. weekly
Procedure: as §1, §2

[3] = test system: tumor-infiltrating immune cells; test: IHC, MassCyTOF and RNA-seq/CIBERSORT analysis of tumors from anti-PD1 treated Hu-mice; format: in vivo, mouse
Procedure: as §3
CyTOF staining was performed as previously described (Wang et al 2019). Briefly, carrier-free antibodies were commercially obtained and tagged with lanthanide metals using the Maxpar X8 metal conjugation kit from Fluidigm^R (201300, Ontario, Canada). Antigen retrieval was performed on deparaffinized tissue sections at 95° C. for 30 min in Tris/EDTA buffer, slides were cooled, blocked with 3% BSA-PBS solution and incubated with cocktail of antibodies (100 ul) overnight at 4° C. Next day slides were washed 3× with PBS and labeled with 1:400 dilution of Intercalator-Ir (Fluidigm 201192B) in PBS for 30 min at RT. Slides were washed with water (3×) and air dried for 30 mins before image mass cytometry acquisition using Fluidigm Hyperion Imaging System.
RNAseq was done using ScriptSeq RNA-seq library preparation kit (Illumina, [BHMR1205], San Diego, Calif.). Quality control of RNA and DNA library was done using the Tapestation 4200 and Bioanalyzer 2100 system (Agilent, Santa Clara, Calif.). Library quantification was done using the Kapa Library Quantification qPCR kit (Roche, [KK4854], Pleasanton, Calif.) and subjected to a 75 bp paired-end sequencing run on Illumina's NExtSeq 500 high output kit following the manufacturer's protocol. RNA-seq analysis was performed using RSEM v1.2.12 software and downstream expression analysis was done using Differential2 (Shuai Wu et al. Nature Commun. 2018; 9: 4166). RNA-seq data was used to enumerate tumor-infiltrating leukocytes using CIBERSORT, an analytical tool available online (cibersort.stanford.edu) (Chen et al. Methods Mol. Biol. 2018; 1711:243-259).
In order to understand the phenomenon of mixed therapy responses to anti-PD1 treatment, IHC, multiplexed imaging using MassCyTOF and RNA-seq was performed on tumors obtained from anti-PD1 treated Hu-mice and they were compared with control Ig treated mice. […]

[4] = compared to control IgG or non-reconstituted NSG mice treated with anti-PD1, listed as Anti-PD1 antibody
[5] = compared to control IgG or non-reconstituted NSG mice treated with anti-PD1, listed as anti-PD1 antibody

Compound	human T γ/δ cells in tissues (human γ/δ+ T-cells)	immune infiltrating cells by IHC staining (451LU melanoma; 451Lu tumors in Hu-mice after anti-PD1)	tumor growth of 451LU melanoma (451LU melanoma; Hu-mice, aggressively growing metastatic melanoma)	tumor growth of WM3629 melanoma [1, 4]	tumor growth of WM3629 melanoma [1, 5]	mast cells in melanoma patients' tumor (mast cells in tumor)	tumor growth of A375 melanoma [2, 4]	tumor growth of A375 melanoma [2, 5]	immune (leukocyte) infiltration in tumor sections ([3]; H&E/IHC, compared to control IgG treated / untreated Hu-mice)	transcription of chemokine genes (CCL2, CCL3, CCL4, CCLS, CXCL9, CXCL10 and CXCL11) ([3]; RNA-seq of tumors after anti-PD1 treatment)	mast cell numbers in tumors (mast cell tryptase IHC) ([3]; compared to control Ig treated mice)	tumor resident mast cells / mast related genes by CIBERSORT of RNA-seq data ([3]; tumors from Hu-mice with and without anti-PD1)
C/C(=C\COP(=O)(O)OP(=O)(O)O)CO [HMBPP, hydroxy-2-methyl-2-butenyl 4-pyrophosphate]	further expanded	–	–	–	–	–	–	–	–	–	–	–
anti-PD1: anti-PD-1 antibody (Keytruda, Merck, Rahway, N.J.)	–	No immune infiltrating cells were detected	negligible effect on growth; also recorded: unable to restrict tumor growth	restrict tumor growth	significantly restricted tumor growth	increased presence of mast cells	restrict tumor growth	significantly restricted tumor growth	Higher levels of immune infiltration; also recorded: dense leukocyte infiltration	higher transcription	increased numbers	higher presence of tumor resident mast cells; also recorded: higher expression of mast related genes
